Source: patent publication US7320990B2, “Crystalline form of a biphenyl compound” (Theravance, Inc., priority 2004, dated 2008)

How the values were obtained:
[1] = tested on: human β1, β2 or β3 adrenergic receptors; assay: Whole-cell cAMP Flashplate assay in CHO cell lines heterologously expressing human β adrenergic receptors; type: cell-based; conditions: CHO-K1 cells; receptor subtype not named in the result sentence; read-out: EC50 values (β receptor agonist potency, cAMP)
Description: Test compounds (10 mM in DMSO) were diluted into PBS containing 0.1% BSA in Beckman Biomek-2000 and tested at 11 different concentrations ranging from 100 μM to 1 pM.

[2] = tested on: ACh-induced bronchoconstriction; assay: Bronchoprotection in guinea pig model of acetylcholine-induced bronchoconstriction; type: in vivo; conditions: inhalation, 1.5 hours post-dose
Description: (§1) Groups of 6 male guinea pigs (Duncan-Hartley (HsdPoc:DH) Harlan, Madison, Wis.) weighing between 250 and 350 g were individually identified by cage cards. Throughout the study, animals were allowed access to food and water ad libitum.
(§2) Forty-five minutes prior to the start of the pulmonary evaluation, each guinea pig was anesthetized with an intramuscular injection of ketamine (43.75 mg/kg), xylazine (3.50 mg/kg) and acepromazine (1.05 mg/kg). After the surgical site was shaved and cleaned with 70% alcohol, a 2-3 cm midline incision of the ventral aspect of the neck was made. […] The depth of anesthesia was monitored and adjusted if the animal responds to pinching of its paw or if the respiration rate was greater than 100 breaths/minute. […]
(§3) Once it was determined that baseline values were within the range of 0.3-0.9 mL/cm H2O for compliance and within the range of 0.1-0.199 cm H2O/mL per second for resistance, the pulmonary evaluation was initiated. […]
(§4) Starting this program initiated the experimental protocol and data collection. The changes in […] over time that occur within the plethysmograph with each breath were measured via a Buxco pressure transducer. By integrating this signal over time, a measurement of flow was calculated for each breath. […]

[3] = tested on: His-induced bronchoconstriction; assay: Bronchoprotection in guinea pig model of histamine-induced bronchoconstriction; type: in vivo; conditions: inhalation, 1.5 hours post-dose
Description: as §1, §2, §3, §4

[4] = Dynamic moisture sorption assessment (DMS); type: physicochemical; conditions: for deliquescence: exposed to atmosphere moisture
Description: Approximately 10 mg of sample was used in the microbalance and the sample was run as received. The humidity was set at ambient condition on the day the analysis began. A typical DMSG analysis consisted of three scans: ambient to 2% relative humidity (RH), 2% RH to 90% RH, 90% RH to 5% RH. The scan rate was 5% RH/step. The mass was measured every two minutes using an equilibrium window of 5 points within 0.01% of the initial sample weight. The RH was changed to the next value (+/−5% RH) when the mass of the sample was stable to within 0.01% for 5 consecutive points.

[5] = Thermal analysis (DSC and TGA); type: physicochemical
Description: Differential scanning calorimetry (DSC) was performed using a TA Instruments Model Q-10 module with a Thermal Analyst controller. Data were collected and analyzed using TA Instruments Thermal Solutions software. A sample of about 1 mg was accurately weighed into an aluminum pan with lid. The sample was evaluated using a linear heating ramp of 5° C./min from ambient temperature to approximately 300° C. The DSC cell was purged with dry nitrogen during use.
Thermogravimetric analysis (TGA) was performed using a TA Instruments Model Q-50 module equipped with Hi-Resolution capability. Data were collected and analyzed using TA Instruments Thermal Solutions software. A sample weighing about 10 mg was placed onto a platinum pan and scanned with a high resolution-heating rate from ambient temperature to 300° C. The balance and furnace chambers were purged with nitrogen flows during use.

[6] = listed as crystalline naphthalene-1,5-disulfonic acid salt of the compound of formula I
[7] = listed as naphthalene-1,5-disulfonic acid salt of the present invention

## O=C(Nc1ccccc1-c1ccccc1)OC1CCN(CCCCCCCCCNC[C@H](O)c2ccc(O)c3[nH]c(=O)ccc23)CC1 [compound of formula I, biphenyl-2-ylcarbamic acid 1-{9-[(R)-2-hydroxy-2-(8-hydroxy-2-oxo-1,2-dihydro-quinolin-5-yl)ethylamino]nonyl}piperidin-4-yl ester]
[1]
  EC50: < 10 nM
[2]
  ID50 for ACh-induced bronchoconstriction: less than 100 μg/mL
[3]
  ID50 for His-induced bronchoconstriction: less than 100 μg/mL

## Biphenyl-2-ylcarbamic Acid 1-{9-[(R)-2-Hydroxy-2-(8-Hydroxy-2-oxo-1,2-dihydroquinolin-5-yl)ethylamino]nonyl}piperidin-4-yl Ester Naphthalene-1,5-disulfonic Acid Salt [Example 3]
[4]
  moisture sorption/desorption profile: reversible
[4]; [6]
  deliquescence: not to be deliquescent
  hygroscopicity (weight gain when exposed to atmospheric moisture): less than 5%
[4]; [7]
  deliquescence: not deliquescent
  hygroscopicity (weight gain when exposed to atmospheric moisture): < 5%
[4]; humidity range from 2% RH up to 90% RH
  weight gain: 3.7%
[4]; humidity range of 40% RH to 75% RH
  weight gain: less than 1.5%
[5]; from room temperature to 150° C.
  weight loss (TGA): about 1.8%
[5]; heating ramp of 5° C./min
  temperature below which no thermal decomposition occurs (DSC): ≥ 200 °C
